# Assay results: US10906909B2, “Treatment of cognitive and mood symptoms in neurodegenerative and neuropsychiatric disorders with ALPHA5-containing GABAA receptor agonists” (UWM Research Foundation, Inc., priority 2016, dated 2021)
# Several values for one entry are separate records, joined by “and”; a condition that tells them apart may be missing. Equal values may be shown once. Entries after “also recorded” stand apart in the source; their conditions may differ.
# Assays:
# [1] = system: Female Swiss Webster mice; experiment: Rotarod sensorimotor / locomotor coordination; assay type: in vivo, mouse; conditions: for sensorimotor impairment on rotarod (time of fall): 40 mg/kg oral gavage, 15 rpm, 3 min, 10, 30, 60 min after dosing
# Procedure: Female Swiss Webster mice (10 weeks of age) from Charles River Laboratory, WIL, MA were used for the experiments. The animals were housed under specific pathogen-free conditions, under standard conditions of humidity, temperature and a controlled 12 h light and dark cycle and had free access to food and water. The sensorimotor rotarod test was carried out 10, 30 and 60 minutes after the injection. Mice were tested on a rotarod at 15 rpm for maximum 3 min and the time of fall was recorded. Falling before the 3 minutes period of testing assesses of locomotor coordination impairment induced by the compound.
# Mice (N=10/group) received a single administration via oral gavage of test compound (40 mg/kg), diazepam (5 mg/kg), or vehicle (2% polyethylene glycol, 2.5% hydroxypropylmethyl cellulose solution).
# [2] = Pharmacokinetics in mice (plasma, liver, brain); conditions: i.p. dosing at 3 mg/kg
# HEPG2 = experiment: Cytotoxicity assay (CellTiter-Glo), HEPG2; assay type: cell-based, human; conditions: 48 hours incubation
# Procedure: (§1) Human liver hepatocellular carcinoma (HEPG2) and human embryonic kidney 293 (HEK293) cell lines were purchased (ATCC) and cultured in 75 cm2 flasks (CellStar). Cells were grown in DMEM/High Glucose (Hyclone, #SH3024301) media to which non-essential amino acids (Hyclone, #SH30238.01), 10 mM HEPES (Hyclone, #SH302237.01), 5×106 units of penicillin and streptomycin (Hyclone, #SV30010), and 10% of heat inactivated fetal bovine serum (Gibco, #10082147) were added. Cells were harvested using 0.05% Trypsin (Hyclone, #SH3023601), washed with PBS, and dispensed into sterile white, optical bottom 384-well plates (NUNC, #142762). After three hours, small molecule solutions were transferred with a Tecan Freedom EVO liquid handling system equipped with a 100 nL pin tool (V&P Scientific). The controls (E)-10-(bromotriphenylphosphoranyl)decyl 4-(4-(tert-butyl)phenyl)-4-oxobut-2-enoate (400 μM in DMSO, positive control) and DMSO (negative control). The cells were incubated for 48 hours followed by the addition of CellTiter-Glo™, a luminescence-based cell viability assay (Promega, Madison, Wis.). All luminescence readings were performed on a Tecan Infinite M1000 plate reader. The assay was carried out in quadruplet with three independent runs. The data was normalized to the controls and analyzed by nonlinear regression (GraphPad Prism).
# [3] = system: mice subjected to chronic restraint stress (CRS); experiment: Y-maze alternation task, chronic restraint stress (CRS) mice; assay type: in vivo, mouse; conditions: Dose 5 mg/kg
# Procedure: C57/B16 mice, males and females were ordered from Jackson Laboratories at 8 weeks old and were kept in normal housing conditions (12 h light ON cycle starting at 7 am/water and food ad libitum) for one week. During this week, animals were single housed and handled to reduce the anxiety-like response toward the experimenter. To induce a working memory deficit, mice were subjected to a chronic restraint stress protocol (CRS). They were placed in a 50 ml Falcon® tube, twice a day, for 1 hour during their diurnal cycle. The time of occurrence of the stress was randomized every day to avoid predictability. CRS was not applied on testing days. Y-maze test occurred 15 hours minimum after the last stressor.
# Mice were first habituated to the Y-maze apparatus and distal cues during 2 consecutive days over a 10 min free exploration session (one session per day). The next day, animals performed a training session consisting in seven successive trials separated by a 30 s inter-trial interval (ITI); during this training session, mice were familiarized with the experimental procedure (opening and closing of the doors and confinement into the goal arms). For each trial, mice remained in the start-box for a 30 s ITI. Then, the door was opened and the mouse was allowed to enter freely one of the two goal arms; the chosen arm was closed and the choice was recorded. After a 30 s confinement period into the chosen arm, the mouse was removed and brought back to the start-box for a second trial identical to the first one and this procedure was repeated over the series of trials.
# The same general procedure used in the training session was implemented 24 h later, except that the ITI was lengthened to 90 s. For this experiment, animals were acutely injected i.p. with vehicle or αPAM, 30 minutes before the beginning of the test. To dissociate memory deficits from an eventual progressive loss of motivation to alternate over the series, an 8th trial was added to the series which was separated from the 7th trial by a shorter ITI (5 s). All animals failing to alternate at the 8th trial were excluded. The mean alternation rate was calculated and was expressed in percentage (number of alternation done by the animal/total number of alternation possible×100)±SEM. The percentage of alternation during the entire task is considered as an index of working memory performance (50% of being a random alternation rate). Factorial ANOVA was applied to the data to reveal differences between groups. If the ANOVA was significant for group effect (p<0.05), Scheffe post-hoc analysis were conducted to identify which groups are different from each other.
# All drugs were diluted in a vehicle solution containing 85% H2O, 14% propylene glycol (Sigma Aldrich) and 1% Tween 80 (Sigma Aldrich). Working solutions were prepared at a concentration of 10 mg/mL and administered i.p. adjusted to the body weight of each animal. Doses used were either 1, 5, 10 or 20 mg/kg. For all Y maze experiments, animals were acutely injected i.p. with vehicle or αPAM, 30 minutes before the beginning of the test.
# HEK293 = experiment: Cytotoxicity assay (CellTiter-Glo), HEK293; assay type: cell-based, human; conditions: 48 hours incubation
# Procedure: as §1
# [4] = Mouse liver microsome stability assay; assay type: in vitro ADME; conditions: 10 μM compound
# Procedure: (§2) Human and mouse liver microsomes were obtained fom BD Gentest.
# (§3) Each evaluation included six independent assays carried out three at a time, on two different days
# (§4) 2. For a total volume of Microsomal Assay Mixture (MAM) 390 μL, sufficient for seven time points, combine the following
# (§5) 3. Sonicate MAM for 5 min and meanwhile thaw microsomes (20 mg/mL) (BD Gentest, Cat #452156) on ice.
# (§6) 4. Aliquot 100 μL of ice cold ISTD into 7 separate 1.5 mL conical vials and label them the time points for 0, 10, 20, 40, 60, 90, and 120 min.
# (§7) 5. Arrange the timer. Microsomes (Final concentration of 0.5 mg/mL) should be added to all time points except the zero time point.
# (§8) 6. Add 50 μL of the MAM solution to the conical vial labelled as zero time point. Place the remaining MAM solution in the incubator (37° C.) for 5 min and initiate the reaction with addition of microsomes (8.8 μL) and record the time.
# (§9) 7. At the end of each time interval remove 50 μL and add 100 μL to ISTD in conical vial, sonicate for 10 sec and spin down at 10,000 rpm for 5 minutes.
# (§10) 8. Take 100 μL of supernatant and transfer to Spin-X HPLC filter tubes (Corning Incorporated, Cat #8169) and centrifuge at 13,000 rpm for 5 minutes and take 5 μL from this solution and dilute in 495 μL of LCMS grade methanol (Fischer scientific, CAS #67-56-1) in an 2 mL glass auto sampler vial (Microsolv, Cat #95025-WCV) 9. The samples are analyzed by LCMS-8040. (Shimadzu)
# (§11) Calculation: From the peak area, calculate the following
# (§12) The compounds are tested for the metabolic stability in the Human and Mouse Liver microsomes at 10 μM concentration.
# [5] = Human liver microsome stability assay; assay type: in vitro ADME; conditions: 10 μM compound
# Procedure: as §2, §3, §4, §5, §6, §7, §8, §9, §10, §11, §12
# adult male Wistar rats = experiment: Spontaneous locomotor activity in rats; assay type: in vivo, rat; conditions: 10 mg/kg i.p.; for distances traveled in 5-min intervals: 60 min recording; for overall distance traveled during 60 min (spontaneous locomotor activity): vs SOL
# Procedure: (FIG. 23). […] Procedure for the assessment of locomotor activity changes induced by additional ligands in rats. […] The test was performed in the apparatus consisting of four white and opaque Plexiglas chambers (40×25×35 cm) under dim red light (20 lux). Digital camera mounted above the apparatus recorded the animal activity, which was tracked and analyzed using ANY-maze Video Tracking System software (Stoelting Co, Wood Dale, Ill., USA). […] The 10 mg/kg dose of each of ligands or SOL were applied i.p. in the 10 ml/kg volume and a single rat was immediately placed in the center of the chamber. The activity was tracked for a total of 60 min. Chambers were cleaned with diluted ethanol after every trial. Statistical analysis (one-way ANOVA and post hoc SNK tests where applicable) was performed in SigmaPlot 11 software (Systat, USA).
# rats [6] = experiment: Social novelty discrimination (SND); assay type: in vivo, rat; conditions: 2.5 mg/kg diazepam (so in the source)
# Procedure: The SND test compares the social investigation times of an adult rat with a familiar and a novel juvenile rat. Testing consisted of two consecutive juvenile presentations periods to an adult subject: period 1 (P1) and period 2 (P2). At the beginning of P1, one juvenile was placed into the adult home cage and the time spent by the adult investigating the juvenile (anogenital sniffing, licking, close pursuing and pawing) was recorded manually for 5 min. During P2, the same juvenile and a second, novel juvenile were placed in the cage together with the adult, and the times spent by the adult investigating each juvenile were measured independently for 3 min. A different pair of juvenile rats was presented to each adult tested. Manual scoring was conducted in a blinded manner. SND was deliberately impaired in control rats by the parametric manipulation applied, as there was 30 min delay between P1 and P2, and their SND was expected to be low. The influence of MP-III-022 (1, 2.5 or 10 mg/kg) on the thus induced impairment in SND was examined. There were five groups of rats which received one of the following treatments 20 min before P1: solvent, 1.5 mg/kg diazepam and 1, 2.5 and 10 mg/kg MP-III-022. The amount of time investigating familiar (Tf) and novel (Tn) juvenile during P2 was manually scored, and discrimination indexes (Tn−Tf/Tn+Tf) was calculated. Total exploration time during P1 and P2 was also manually recorded.
# rats [7] = experiment: Morris water maze; assay type: in vivo, rat; conditions: diazepam 2 mg/kg, positive control
# Procedure: The potential of MP-III-022 to affect cognitive performance of rats was assessed in 2 well-validated behavioral models. First, Morris water maze experiments were performed in a 2 m diameter circular pool filled to a height of 30 cm with water at 22±1° C. The escape platform (15 cm×10 cm) was submerged 2 cm below the water surface. All experimental details were as described in Savic et al. (Int. J. Neuropsychopharmacol. 2009, 12, 1179-1193). On each of the five consecutive days rats were given one swimming block, consisting of four trials. For each trial the rat was placed in the water at one of four pseudo-randomly determined starting positions. Once the rat has found and mounted the escape platform it was permitted to remain on the platform for 15 s. […] During the acquisition phase, treatments were applied once daily before the swimming block. On the sixth day, rats were given a treatment-free probe test (60 s) without the platform. The probe test was started from the novel, most distant location. Dependent variables chosen for tracking during the acquisition trials were: escape latency (s), total distance traveled (m), path efficiency (the ratio of the shortest possible path length to actual path length), % of distance swam in the peripheral annulus and mean speed (m/s). The selected parameters in the probe test were the distance swam in the target zone […] and % of the distance swam in the peripheral annulus. We tested the effects of 1, 2.5 and 10 mg/kg MP-III-022 and 2 mg/kg diazepam as control drug. The doses of MP-III-022 were selected so that they elicit a mild, moderate and strong positive modulation of α5GABAARs, respectively, in accordance with the analysis of thorough pharmacokinetic and electrophysiological data presented in Stamenic et al. (Eur. J. Pharmacol. 2016, 791, 433-443). The data from the acquisition days in the Morris water maze were averaged for each rat (total data/total number of trials per day) and analyzed using two-way ANOVA with repeated measures (factors: Treatment and Days) with Days as the repeated measure. In the case of significant interaction, separate one-way ANOVAs were conducted to assess the influence of treatment within individual levels of factor Days. The data from the probe test were assessed using one-way ANOVA.
SMILES,sensorimotor impairment on rotarod (time of fall) [1],molar concentration range reached in mouse brain tissue [2],HEPG2 LD50 (HEPG2) [µM],Alternation rate (%) [3] [%],HEK293 LD50 (HEK293) [µM],Half-life (min) (MouseLM) [4],% left after 2 hr. (MouseLM) [4],Half-life (min) (HumanLM) [5],distances traveled in 5-min intervals (adult male Wistar rats),overall distance traveled during 60 min (spontaneous locomotor activity) (adult male Wistar rats),"half-life at 10 μM ([4]; mouse, liver microsomes, read-out: Half-life (min) (MouseLM))",% left after 2 hr. (Human LM) ([5]; 2 hr) [%],"half-life at 10 μM ([5]; human, liver microsomes, read-out: Half-life (min) (HumanLM))","sensorimotor performance on rotarod (time of fall) ([1]; diazepam 5 mg/kg oral gavage, positive control)",time exploring the familiar and the novel juvenile rat during P2 (rats [6]),spatial learning during acquisition in the water maze (rats [7])
"C#Cc1ccc2c(c1)C(c1ccccc1F)=N[C@@H](C)c1c(C(=O)NC)ncn1-2 [MP-III-023, (S)-8-ethynyl-6-(2-fluorophenyl)-N,4-dimethyl-4H-benzo[f]imidazo[1,5-a][1,4]diazepine-3-carboxamide]",most severe motor impairment,micromolar concentrations,>200,62.5,>200,846 ± 5,84.6% and 84.6 ± 0.2%,1790 ± 40,induced sedation during nearly the whole period of recording,profound sedation,–,–,–,–,–,–
CNC(=O)c1ncn2c1CN=C(c1ccccc1F)c1cc(Br)ccc1-2 [RV-II-04],most severe motor impairment,micromolar concentrations,>200,54.1,>200,–,73.7 ± 0.3%,–,induced sedation during nearly the whole period of recording,profound sedation; also recorded: sedated when compared to all other groups,302 ± 33,80.2 ± 0.4,595 ± 157,–,–,–
"CN1C(=O)CN=C(c2ccccc2)c2cc(Cl)ccc21 [diazepam, reference compound]",–,–,–,–,–,–,–,–,–,–,–,–,–,sensorimotor steadiness at 10 minutes,statistical trend,spatial learning incapacitation
